Experimental data taken from patent US20010056060A1, “Treatment of osteoporsis with EP2/EP4 receptor selective agonists” (priority 2000, published 2001).

Key:
EP2 receptor = biological target: T1, EP2 receptor (Homo sapiens, UniProt P43116); test: Assay for binding to prostaglandin E2 receptors (3H-PGE2 displacement), EP2
T1 construct: The full length EP2 receptor is made as disclosed in Regan et al; expressed in transfected cells; membranes
Description: (§1) All operations are performed at 4° C. […] The cells are lysed by sonification with a Branson Sonifier (Model #250, Branson Ultrasonics Corporation, Danbury, Conn.) in 2 fifteen second bursts. Unlysed cells and debris are removed by centrifugation at 100× g for 10 min. Membranes are then harvested by centrifugation at 45,000× g for 30 minutes. Pelleted membranes are resuspended to 3-10 mg protein per ml, protein concentration being determined of the method of Bradford [Bradford, M., Anal. Biochem., 72, 248 (1976)]. Resuspended membranes are then stored frozen at −80° C. until use.
(§2) Frozen membranes prepared as above are thawed and diluted to 1 mg protein per ml in Buffer A above. […] The membranes are then recovered by filtration through type GF/C glass fiber filters (#1205-401, Wallac, Gaithersburg, Md.) using a Tomtec harvester (Model Mach II/96, Tomtec, Orange, Conn.). […] Each sample is then washed 3 times with 3 ml of [50 mM Tris-HCl (pH 7.4), 10 mM MgCl2, 1 mM EDTA]. The filters are then dried by heating in a microwave oven. To determine the amount of ^3H—prostaglandin bound to the membranes, the dried filters are placed into plastic bags with scintillation fluid and counted in a LKB 1205 Betaplate reader (Wallac, Gaithersburg, Md.).
(§3) The full length EP1 receptor is made as disclosed in Funk et al., Journal of Biological Chemistry, 1993, 268, 26767-26772. […]

EP4 receptor = biological target: T2, EP4 receptor (Homo sapiens, UniProt P35408); test: Assay for binding to prostaglandin E2 receptors (3H-PGE2 displacement), EP4
T2 construct: The full length EP4 receptor is made as disclosed in Bastien; expressed in transfected cells; membranes
T2 sequence (P35408 whole entry): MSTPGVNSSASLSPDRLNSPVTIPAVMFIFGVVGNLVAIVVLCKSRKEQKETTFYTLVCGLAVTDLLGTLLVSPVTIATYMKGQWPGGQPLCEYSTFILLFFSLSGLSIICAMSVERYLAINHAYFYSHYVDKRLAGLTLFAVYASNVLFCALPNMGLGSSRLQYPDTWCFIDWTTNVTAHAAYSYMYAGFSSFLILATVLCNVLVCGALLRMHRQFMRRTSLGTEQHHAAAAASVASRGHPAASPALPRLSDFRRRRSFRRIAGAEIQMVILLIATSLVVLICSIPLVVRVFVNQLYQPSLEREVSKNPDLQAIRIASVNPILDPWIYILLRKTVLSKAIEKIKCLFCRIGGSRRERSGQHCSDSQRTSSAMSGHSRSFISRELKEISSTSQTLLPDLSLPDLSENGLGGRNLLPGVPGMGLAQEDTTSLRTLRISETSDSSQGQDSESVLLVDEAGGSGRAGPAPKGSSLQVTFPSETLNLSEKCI
Description: as §1, §2, §3

EP1 receptor = biological target: T3, EP1 receptor (Homo sapiens, UniProt P34995); test: Assay for binding to prostaglandin E2 receptors (3H-PGE2 displacement), EP1
T3 construct: The full length EP1 receptor is made as disclosed in Funk et al; expressed in transfected cells; membranes
T3 sequence (P34995 1-402): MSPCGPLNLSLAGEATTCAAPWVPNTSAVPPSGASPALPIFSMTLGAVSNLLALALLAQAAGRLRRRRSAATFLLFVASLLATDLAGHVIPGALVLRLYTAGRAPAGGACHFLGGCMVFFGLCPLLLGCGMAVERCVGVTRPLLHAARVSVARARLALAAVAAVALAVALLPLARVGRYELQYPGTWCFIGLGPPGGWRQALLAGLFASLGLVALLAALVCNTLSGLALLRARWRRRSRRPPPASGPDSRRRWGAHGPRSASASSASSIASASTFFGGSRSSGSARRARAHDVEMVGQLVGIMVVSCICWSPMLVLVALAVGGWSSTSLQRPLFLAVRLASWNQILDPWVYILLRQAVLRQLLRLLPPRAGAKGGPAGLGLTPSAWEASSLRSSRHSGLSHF
Description: (§4) All operations are performed at 4° C. […] Louis, Mo.), 1 uM pepstatin A peptide, (Sigma, St. Louis, Mo.), 10 uM elastatinal peptide, (Sigma, St. Louis, Mo.), 100 uM antipain peptide, (Sigma, St. Louis, Mo.)]. The cells are lysed by sonification with a Branson Sonifier (Model #250, Branson Ultrasonics Corporation, Danbury, Conn.) in 2 fifteen second bursts. Unlysed cells and debris are removed by centrifugation at 100× g for 10 min. Membranes are then harvested by centrifugation at 45,000× g for 30 minutes. Pelleted membranes are resuspended to 3-10 mg protein per ml, protein concentration being determined of the method of Bradford [Bradford, M., Anal. Biochem., 72, 248 (1976)]. Resuspended membranes are then stored frozen at -80° C. until use. Frozen membranes prepared as above are thawed and diluted to 1 mg protein per ml in Buffer A above. One volume of membrane preparation is combined with 0.05 volume test compound or buffer and one volume of 3 nM ^3H-prostaglandin E2 (#TRK 431, Amersham, Arlington Heights, Ill.) in Buffer A. The mixture (205 μL total volume) is incubated for 1 hour at 25° C. […] To determine the amount of ^3H-prostaglandin bound to the membranes, the dried filters are placed into plastic bags with scintillation fluid and counted in a LKB 1205 Betaplate reader (Wallac, Gaithersburg, Md.). […]

EP3 receptor = biological target: T4, EP3 receptor (Homo sapiens, UniProt P43115); test: Assay for binding to prostaglandin E2 receptors (3H-PGE2 displacement), EP3
T4 construct: The full length EP3 receptor is made as disclosed in Regan et al; expressed in transfected cells; membranes
T4 sequence (P43115 1-390): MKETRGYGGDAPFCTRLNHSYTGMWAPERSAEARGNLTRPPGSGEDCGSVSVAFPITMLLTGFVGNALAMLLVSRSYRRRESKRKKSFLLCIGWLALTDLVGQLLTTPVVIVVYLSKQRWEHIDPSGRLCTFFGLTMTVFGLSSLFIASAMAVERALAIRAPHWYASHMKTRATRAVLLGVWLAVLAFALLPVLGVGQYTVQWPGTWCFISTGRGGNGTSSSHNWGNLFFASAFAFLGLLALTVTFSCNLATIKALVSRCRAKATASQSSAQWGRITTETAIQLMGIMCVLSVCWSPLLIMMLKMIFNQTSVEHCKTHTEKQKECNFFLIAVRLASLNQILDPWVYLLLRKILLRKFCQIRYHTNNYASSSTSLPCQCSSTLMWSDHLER
Description: as §4

DP receptor = biological target: T5, DP receptor (Homo sapiens, UniProt Q13258); test: DP receptor binding
T5 sequence (Q13258 1-359): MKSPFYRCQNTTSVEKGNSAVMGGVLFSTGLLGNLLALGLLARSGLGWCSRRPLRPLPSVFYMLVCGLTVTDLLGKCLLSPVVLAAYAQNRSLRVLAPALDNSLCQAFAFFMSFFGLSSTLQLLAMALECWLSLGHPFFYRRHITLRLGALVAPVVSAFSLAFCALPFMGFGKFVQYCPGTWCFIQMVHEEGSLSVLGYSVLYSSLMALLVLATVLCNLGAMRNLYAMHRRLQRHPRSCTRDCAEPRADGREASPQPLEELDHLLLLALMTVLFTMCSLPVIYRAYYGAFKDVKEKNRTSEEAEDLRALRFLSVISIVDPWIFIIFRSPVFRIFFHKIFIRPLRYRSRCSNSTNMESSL

IP receptor = IP receptor (Homo sapiens, UniProt P43119); test: IP receptor binding
Sequence of IP receptor (P43119 whole entry): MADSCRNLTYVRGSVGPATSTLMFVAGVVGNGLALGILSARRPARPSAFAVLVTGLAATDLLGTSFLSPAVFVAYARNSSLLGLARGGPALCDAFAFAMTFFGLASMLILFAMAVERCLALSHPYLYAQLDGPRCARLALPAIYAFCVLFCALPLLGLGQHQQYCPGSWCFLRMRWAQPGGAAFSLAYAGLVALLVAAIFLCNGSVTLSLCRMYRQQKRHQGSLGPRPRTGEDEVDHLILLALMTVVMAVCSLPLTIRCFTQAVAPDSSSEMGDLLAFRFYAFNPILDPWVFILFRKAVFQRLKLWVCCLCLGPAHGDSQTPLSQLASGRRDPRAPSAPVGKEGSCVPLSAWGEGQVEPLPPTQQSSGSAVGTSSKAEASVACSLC

FP receptor = FP receptor (Homo sapiens, UniProt P43088); test: FP receptor binding
Sequence of FP receptor (P43088 whole entry): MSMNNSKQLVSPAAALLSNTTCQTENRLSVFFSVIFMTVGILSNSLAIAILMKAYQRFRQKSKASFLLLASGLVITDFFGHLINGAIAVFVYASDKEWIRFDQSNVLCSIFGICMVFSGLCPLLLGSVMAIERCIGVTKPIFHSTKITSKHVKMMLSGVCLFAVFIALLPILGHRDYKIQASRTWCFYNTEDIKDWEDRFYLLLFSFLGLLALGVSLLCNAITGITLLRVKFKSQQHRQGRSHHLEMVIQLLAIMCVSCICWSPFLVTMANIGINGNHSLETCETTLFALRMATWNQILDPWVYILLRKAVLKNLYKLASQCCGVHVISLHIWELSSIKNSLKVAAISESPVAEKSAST

osteopenic, OVX rats = test: Example One: skeletal effects in osteopenic OVX rats, distal femoral metaphyseal BMC/BMD by DXA; assay type: in vivo, Sprague-Dawley female rats; details: 10 mg/kg/day subcutaneous injection for 4 weeks
Description: Prostaglandin E2 (PGE2) restores bone mass by stimulating both bone formation and bone resorption but in favor of bone formation in ovariectomized (OVX) rat skeleton.
Sprague-Dawley female rats were sham-operated (n=20) or OVX (n=50) at 3 months of age. Five weeks post-surgery, OVX rats were treated (subcutaneous injection) with either vehicle or 3-(3-hydroxy-4-phenyl-butyl)-2-(6-(1 H—tetrazol-5-yl)-hexyl)-cyclopentanone at 10 mg/kg/day for 4 weeks. Distal femoral metaphyseal bone mineral content (BMC) and bone mineral density (BMD) were determined by dual energy x-ray absorptiometry (Hologic QDR-1000/W, Hologic Inc., Waltham, Mass.) according to the methods described by Ke et al., (Droloxifene, a New Estrogen Antagonist/Agonist, Prevents Bone Loss in Ovariectomized Rats, Endocrinology, 136:2435-2441; 1995).

T1 sequence (P43116 whole entry): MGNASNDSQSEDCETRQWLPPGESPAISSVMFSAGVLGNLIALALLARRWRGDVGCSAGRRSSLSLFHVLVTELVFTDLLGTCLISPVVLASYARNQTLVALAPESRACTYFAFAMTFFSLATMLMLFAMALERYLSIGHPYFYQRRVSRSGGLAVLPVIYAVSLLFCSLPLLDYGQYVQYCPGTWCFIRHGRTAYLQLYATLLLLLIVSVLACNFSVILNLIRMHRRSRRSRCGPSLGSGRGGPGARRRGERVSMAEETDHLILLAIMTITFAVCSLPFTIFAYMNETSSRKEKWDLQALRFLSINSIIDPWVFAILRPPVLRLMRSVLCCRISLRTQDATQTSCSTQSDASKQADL

Row | SMILES | IC50 (EP2 receptor) [nM] | IC50 (EP4 receptor) [nM] | IC50 (EP1 receptor) [µM] | IC50 (EP3 receptor) [µM] | IC50 (DP receptor) [µM] | IC50 (IP receptor) [µM] | IC50 (FP receptor) [µM] | restoration of bone mass to the OVX, osteopenic rat skeleton (osteopenic, OVX rats) | increase in distal femoral metaphyseal BMC as compared with OVX controls (osteopenic, OVX rats; started 5 weeks post-OVX) | increase in distal femoral metaphyseal BMC as compared with pre-treatment OVX controls (osteopenic, OVX rats; started 5 weeks post-OVX) | increase in distal femoral metaphyseal BMD as compared with OVX controls (osteopenic, OVX rats; started 5 weeks post-OVX) | increase in distal femoral metaphyseal BMD as compared with pre-treatment OVX controls (osteopenic, OVX rats; started 5 weeks post-OVX)
1 | O=C1CCC(CCC(O)Cc2ccccc2)C1CCCCCCc1nnn[nH]1 (centres unmarked) [3-(3-hydroxy-4-phenyl-butyl)-2-(6-(1 H—tetrazol-5-yl)-hexyl)-cyclopentanone] | 56 | 70 | > 3.2 | > 3.2 | > 3.2 | > 3.2 | > 3.2 | completely restored the bone mass | +42% | +23% | +28% | +17%
2 | CS(=O)(=O)N(CCCCCCC(=O)O)CCOc1cc(Cl)cc(Cl)c1 [7-(2-(3,5-dichloro-phenoxy)-ethyl)-methanesulfonyl-amino)-heptanoic acid] | 17 | – | – | – | – | – | – | – | – | – | – | –
3 | O=C(O)CCCCCCN1C(=O)CCC1CCC(O)Cc1ccccc1 (centres unmarked) [7-(2-(3-hydroxy-4-phenyl-butyl)-5-oxo-pyrrolidin-1-yl)-heptanoic acid] | – | 36 | – | – | – | – | – | – | – | – | – | –
